Where two headings read alike, the source gives them in different places.

Assay [1] has as its target WT EZH2 (Homo sapiens (Human), UniProt Q15910). As to the kind of experiment: WT EZH2 nucleosome assay (10X SAM, high SAM conditions). The assay is classed as biochemical. The conditions noted are these: 15 uM SAM, Ki app from competitive inhibition fit. As to the method: (§1) The genes for EZH2, EED, SUZ12, and RBBP4 proteins were cloned into pBacPAK9 vectors (Clontech). RBBP4 was FLAG tagged on the N-terminal end. The baculovirus expressions of these proteins were used to co-infect SF9 insect cells. Insect cell pellets were lysed in a buffer containing 25 mM Tris pH8.0, 300 mM NaCl, 0.5 mM TCEP, complete EDTA-free protease inhibitor (Roche), 0.1% NP-40. The supernatant from the lysate was incubated with FLAG® M2 antibody resin (Sigma). The resin was washed on the chromatography column and eluted with 0.2 mg/ml FLAG peptide. The elute was incubated with omnicleave nucleases (Epicentre Technologies) at 4° C. overnight, then concentrated and loaded onto a Superdex 200 (GE Healthcare) column. The Superdex 200 column was eluted with 25 mM Tris pH8.0, 150 mM NaCl, 0.5 mM TCEP. Fractions containing the PRC2 complex were pooled.
(§2) A. Compound preparation • 1.
(§3) B. Reagent preparation • 1. […] Dilute TCA to 20% in DI water
(§4) C. Enzyme reaction • 1. […] Some compounds were tested under high SAM conditions.
(§5) D. Data analysis • 1. IC50 values were determined by fitting the data to a 4-parameter IC50 equation using proprietary curve fitting software. • 2. For compounds tested under high SAM conditions, Ki^app values were obtained by fitting the dose response curve to a model for competitive inhibition using proprietary curve fitting software. Preparation of HeLa Oligonucleosomes: Reagents • Cell Pellet: 15 L HeLa S3 (Accelgen)+6 L HeLa S3 (in house) • Mnase (Worthington Biochemicals) Equipment • SW-28 Rotor • Dounce Homogenizer/B Pestle Buffers • Lysis: 20 mM Hepes pH 7.5, 0.25M Sucrose, 3 mM MgCl2, 0.5% Nonidet P-40, 0.5 mM TCEP, 1 Roche Protease Tablet • B: 20 mM Hepes pH7.5, 3 mM MgCl2, 0.5 mM EDTA, 0.5 mM TCEP, 1 Roche Protease Tablet • MSB: 20 mM Hepes pH7.5, 0.4 M NaCl, 1 mM EDTA, 5% v/v Glycerol, 0.5 mM TCEP, 0.2 mM PMSF • LSB: 20 mM Hepes pH7.5, 0.1M NaCl, 1 mM EDTA, 0.5 mM TCEP, 0.2 mM PMSF • NG: 20 mM Hepes pH7.5, 1 mM EDTA, 0.4 m NaCl, 0.2 mM PMSF, 0.5 mM TCEP • Storage: 20 mM Hepes pH7.5, 1 mM EDTA, 10% Glycerol, 0.2 mM PMSF, 0.5 mM TCEP Protocol

Assay [2] has as its target EZH2 Mutant Y641N (Homo sapiens (Human), UniProt Q15910, Y641N). As to the kind of experiment: EZH2 Mutant Y641N nucleosome assay. The class given is biochemical. The conditions noted are these: PRC2 4-protein complex 6 nM, 1.5 μM SAM, HeLa oligonucleosomes. The method, then:
as §1, §2, §3, §4, §5

[3] abbreviates: read-out: WT EZH2 Nucleosome assay (10X SAM) Ki.
Where [4] appears, read: read-out: EZH2 Mutant Y641N Nucleosome assay IC50.

WT EZH2, sequence (Q15910 whole entry, looked up): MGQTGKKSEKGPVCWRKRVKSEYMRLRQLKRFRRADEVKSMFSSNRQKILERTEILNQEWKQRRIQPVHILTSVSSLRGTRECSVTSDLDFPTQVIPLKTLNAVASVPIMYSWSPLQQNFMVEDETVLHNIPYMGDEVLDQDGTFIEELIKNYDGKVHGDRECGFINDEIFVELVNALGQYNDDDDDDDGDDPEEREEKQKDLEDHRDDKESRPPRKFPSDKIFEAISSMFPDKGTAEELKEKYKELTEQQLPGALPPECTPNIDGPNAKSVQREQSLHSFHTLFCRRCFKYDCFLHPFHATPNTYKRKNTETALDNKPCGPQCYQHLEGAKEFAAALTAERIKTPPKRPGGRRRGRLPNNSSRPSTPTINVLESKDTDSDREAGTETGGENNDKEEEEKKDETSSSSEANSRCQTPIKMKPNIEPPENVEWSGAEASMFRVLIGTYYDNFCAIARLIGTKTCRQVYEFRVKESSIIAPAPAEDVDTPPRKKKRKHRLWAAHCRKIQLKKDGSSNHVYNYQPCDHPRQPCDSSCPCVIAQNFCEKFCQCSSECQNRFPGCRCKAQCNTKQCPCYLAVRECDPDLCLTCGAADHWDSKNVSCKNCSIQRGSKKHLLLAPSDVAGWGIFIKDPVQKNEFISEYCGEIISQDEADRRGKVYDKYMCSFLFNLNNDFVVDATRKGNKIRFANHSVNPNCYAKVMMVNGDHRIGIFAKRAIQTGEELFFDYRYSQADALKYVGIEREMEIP
WT EZH2, sequence (O75530 whole entry partner, looked up): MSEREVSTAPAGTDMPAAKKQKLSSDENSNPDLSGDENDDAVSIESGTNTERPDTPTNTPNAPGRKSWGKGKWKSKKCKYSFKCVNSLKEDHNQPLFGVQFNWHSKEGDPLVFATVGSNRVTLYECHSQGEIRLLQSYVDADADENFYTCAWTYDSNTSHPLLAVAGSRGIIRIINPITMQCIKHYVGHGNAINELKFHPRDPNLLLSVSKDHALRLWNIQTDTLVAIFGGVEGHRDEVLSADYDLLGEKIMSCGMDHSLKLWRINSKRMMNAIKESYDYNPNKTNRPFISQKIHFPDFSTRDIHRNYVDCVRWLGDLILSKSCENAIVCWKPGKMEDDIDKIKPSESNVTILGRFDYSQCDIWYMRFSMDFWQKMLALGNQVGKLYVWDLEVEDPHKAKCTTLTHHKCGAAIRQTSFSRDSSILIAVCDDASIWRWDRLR
WT EZH2, sequence (Q15022 whole entry partner, looked up): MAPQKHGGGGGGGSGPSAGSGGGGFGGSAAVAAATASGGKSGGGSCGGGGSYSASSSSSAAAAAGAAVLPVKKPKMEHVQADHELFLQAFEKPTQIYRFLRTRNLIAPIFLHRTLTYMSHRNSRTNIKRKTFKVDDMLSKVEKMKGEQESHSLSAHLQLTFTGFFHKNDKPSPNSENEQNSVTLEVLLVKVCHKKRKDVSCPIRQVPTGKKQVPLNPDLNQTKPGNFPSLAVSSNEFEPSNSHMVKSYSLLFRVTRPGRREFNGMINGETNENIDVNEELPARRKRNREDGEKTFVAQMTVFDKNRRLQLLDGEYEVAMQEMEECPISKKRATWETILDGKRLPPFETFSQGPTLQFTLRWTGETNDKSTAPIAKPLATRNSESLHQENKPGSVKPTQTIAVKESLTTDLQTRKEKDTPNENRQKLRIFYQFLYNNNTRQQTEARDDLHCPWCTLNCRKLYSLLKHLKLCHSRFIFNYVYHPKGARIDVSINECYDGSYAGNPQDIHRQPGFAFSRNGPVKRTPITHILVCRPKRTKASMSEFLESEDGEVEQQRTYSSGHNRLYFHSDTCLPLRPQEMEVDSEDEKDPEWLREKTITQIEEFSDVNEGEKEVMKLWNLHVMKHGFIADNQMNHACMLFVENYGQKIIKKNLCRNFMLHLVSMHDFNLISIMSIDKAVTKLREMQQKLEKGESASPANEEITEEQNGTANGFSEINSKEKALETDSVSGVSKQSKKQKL
WT EZH2, sequence (Q09028 whole entry partner, looked up): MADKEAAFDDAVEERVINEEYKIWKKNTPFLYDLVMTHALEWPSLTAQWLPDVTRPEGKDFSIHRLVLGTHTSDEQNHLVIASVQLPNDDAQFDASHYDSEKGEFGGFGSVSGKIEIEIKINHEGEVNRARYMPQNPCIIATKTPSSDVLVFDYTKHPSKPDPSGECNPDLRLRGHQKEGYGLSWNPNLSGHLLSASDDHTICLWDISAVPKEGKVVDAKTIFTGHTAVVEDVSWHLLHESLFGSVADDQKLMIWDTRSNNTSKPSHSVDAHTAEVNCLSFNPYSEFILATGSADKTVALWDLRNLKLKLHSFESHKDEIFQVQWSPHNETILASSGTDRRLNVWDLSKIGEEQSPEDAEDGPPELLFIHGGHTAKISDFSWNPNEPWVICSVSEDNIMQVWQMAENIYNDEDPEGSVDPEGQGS
EZH2 Mutant Y641N, sequence (Q15910 whole entry Y641N, looked up): as the sequence (Q15910 whole entry, looked up) above, with Y641N counted along it
EZH2 Mutant Y641N, sequence (O75530 whole entry partner, looked up): as the sequence (O75530 whole entry partner, looked up) above
EZH2 Mutant Y641N, sequence (Q15022 whole entry partner, looked up): as the sequence (Q15022 whole entry partner, looked up) above
EZH2 Mutant Y641N, sequence (Q09028 whole entry partner, looked up): as the sequence (Q09028 whole entry partner, looked up) above

Regarding `Cc1cc(C)c(CN2CCc3ccc(C(CO)C4CCOC4)c(Cl)c3C2=O)c(=O)[nH]1` (single isomer, unassigned) [Example 99], the Ki in assay [1] (setting [3]) was 0.003 µM. In assay [2] (setting [4]), the IC50 turned out to be 0.017 µM.

As for `COC(c1cc(Cl)c2c(c1Cl)C(=O)N(Cc1c(C)cc(C)[nH]c1=O)CC2)C1CC(=O)N(C)C1` (single isomer, unassigned) [Example 180], in assay [1] (setting [3]), the Ki turned out to be 0.39 µM. Further, in assay [2] (setting [4]), the IC50 was determined as 2.16 µM.

With `COc1cc(C)[nH]c(=O)c1CN1CCc2c(C)cc(C(OC)C3COC3)c(Cl)c2C1=O` (single isomer, unassigned) [Example 144], the Ki in assay [1] (setting [3]) was determined as 0.0002 µM. Further, the IC50 in assay [2] (setting [4]) was 0.005 µM.

In the case of `COC(c1cc(Cl)c2c(c1Cl)C(=O)N(Cc1c(C)cc(C)[nH]c1=O)CC2)C(C)O` (stereo not drawn) [Example 102], in assay [1] (setting [3]), the Ki came out at 0.018 µM. For the same compound, in assay [2] (setting [4]), the half-inhibitory concentration (IC50) was determined as 0.178 µM.

On to `Cc1cc(C)c(CN2CCc3c(Cl)cc(C(C)N4CCOCC4)c(Cl)c3C2=O)c(=O)[nH]1` (single isomer, unassigned; (-)) [Example 91, (−)-5,8-dichloro-2-[(4,6-dimethyl-2-oxo-1,2-dihydropyridin-3-yl)methyl]-7-[1-(morpholin-4-yl)ethyl]-3,4-dihydroisoquinolin-1(2H)-one], for which, in assay [1] (setting [3]), the Ki stood at 0.001 µM. In addition, in assay [2] (setting [4]), the IC50 was determined as 0.023 µM.

`COC(c1cc(Cl)c2c(c1Cl)C(=O)N(Cc1c(C)cc(C)[nH]c1=O)CC2)C1CCS(=O)(=O)C1` (single isomer, unassigned) [Example 151]: the Ki in assay [1] (setting [3]) came out at 0.0008 µM. Besides, in assay [2] (setting [4]), the IC50 was 0.009 µM.

Regarding `Cc1cc(C)c(CN2CCc3c(Cl)cc(C(F)=C4CN(C(=O)CO)C4)c(Cl)c3C2=O)c(=O)[nH]1` [Example 79], in assay [1] (setting [3]), the Ki was 0.017 µM. Besides, the IC50 in assay [2] (setting [4]) turned out to be 0.133 µM.

In the case of `COC(c1cc(Cl)c2c(c1Cl)C(=O)N(Cc1c(C)cc(C)[nH]c1=O)CC2)C1CN(C(=O)[C@@H](C)O)C1` (single isomer, unassigned) [Example 170], the Ki in assay [1] (setting [3]) worked out at 0.0008 µM. Also, in assay [2] (setting [4]), the IC50 stood at 0.014 µM.

For the compound `Cc1cc(C)c(CN2CCc3c(Cl)cc(C(C)C4CN(C)C4)c(Cl)c3C2=O)c(=O)[nH]1` (single isomer, unassigned) [Example 187], the Ki in assay [1] (setting [3]) is 0.001 µM. The IC50 in assay [2] (setting [4]) turned out to be 0.01 µM.

For the compound `COc1cc(C)[nH]c(=O)c1CN1CCc2c(Cl)cc(C(C)C3CCN(C(=O)CO)CC3)c(Cl)c2C1=O` (single isomer, unassigned) [Example 201], the Ki in assay [1] (setting [3]) was determined as 0.007 µM. In addition, in assay [2] (setting [4]), the IC50 is 0.037 µM.

With `COc1cc(C)[nH]c(=O)c1CN1CCc2c(C)cc([C@@H](OC)[C@H]3CCOC3)c(Cl)c2C1=O` [Example 86, 8-chloro-2-[(4-methoxy-6-methyl-2-oxo-1,2-dihydropyridin-3-yl)methyl]-7-{(S)-methoxy[(3S)-tetrahydrofuran-3-yl]methyl}-5-methyl-3,4-dihydroisoquinolin-1(2H)-one], the Ki in assay [1] (setting [3]) is 0.061 µM. In assay [2] (setting [4]), the IC50 was 0.637 µM.

As for `Cc1cc(C)c(CN2CCc3c(Cl)cc(C(C)N4CCN(C)CC4)c(Cl)c3C2=O)c(=O)[nH]1` (racemic) [Example 202], the Ki in assay [1] (setting [3]) worked out at 0.016 µM. In addition, the IC50 in assay [2] (setting [4]) was determined as 0.207 µM.

Consider `Cc1cc(C)c(CN2CCc3c(C)cc(C(C)C4CN(S(C)(=O)=O)C4)c(Cl)c3C2=O)c(=O)[nH]1` (single isomer, unassigned) [Example 194], for which the Ki in assay [1] (setting [3]) is 0.044 µM. In addition, in assay [2] (setting [4]), the IC50 was determined as 0.309 µM.

With `Cc1cc(C)c(CN2CCc3c(C)cc(C(C)C4COC4)c(Cl)c3C2=O)c(=O)[nH]1` (single isomer, unassigned) [Example 196], the Ki in assay [1] (setting [3]) is 0.0002 µM. The IC50 in assay [2] (setting [4]) was 0.003 µM.

On to `CC(=O)N1CC(=C(C)c2cc(Cl)c3c(c2Cl)C(=O)N(Cc2c(C)cc(C)[nH]c2=O)CC3)C1` [Example 76], for which the Ki in assay [1] (setting [3]) amounted to 0.005 µM. The IC50 in assay [2] (setting [4]) is 0.043 µM.

As to `COC(c1cc(Cl)c2c(c1Cl)C(=O)N(Cc1c(C)cc(C)[nH]c1=O)CC2)C1CN(S(C)(=O)=O)C1` (single isomer, unassigned) [Example 176], the Ki in assay [1] (setting [3]) came to 0.0003 µM. The IC50 in assay [2] (setting [4]) stood at 0.005 µM.

For the compound `Cc1cc(C)c(CN2CCc3c(C)cc(C(CO)C4CCOCC4)c(Cl)c3C2=O)c(=O)[nH]1` (single isomer, unassigned) [Example 101], the Ki in assay [1] (setting [3]) was determined as 0.0003 µM. In assay [2] (setting [4]), the IC50 is 0.007 µM.

`COC(c1cc(Cl)c2c(c1Cl)C(=O)N(Cc1c(C)cc(C)[nH]c1=O)CC2)C1CCN(C)CC1` (single isomer, unassigned) [Example 136] yielded a Ki in assay [1] (WT EZH2 Nucleosome assay (10X SAM) Ki (μM)) of 0.0001 µM. Further, in assay [2] (EZH2 Mutant Y641N Nucleosome assay IC50 (μM)), the IC50 was 0.003 µM.

`COC(c1cc(Cl)c2c(c1Cl)C(=O)N(Cc1c(C)cc(C)[nH]c1=O)CC2)C1CC[S+]([O-])CC1` (single isomer, unassigned) [Example 115]: the Ki in assay [1] (setting [3]) was determined as 0.0003 µM. Moreover, in assay [2] (setting [4]), the half-inhibitory concentration (IC50) was determined as 0.005 µM.

As to `Cc1cc(C)c(CN2CCc3c(C)cc(C(CO)C4CCOCC4)c(Cl)c3C2=O)c(=O)[nH]1` (single isomer, unassigned) [Example 100], the Ki in assay [1] (setting [3]) came to 0.309 µM. For the same compound, the IC50 in assay [2] (setting [4]) came to 3.73 µM.

Turning to `CC(=C1CN(C(=O)CO)C1)c1cc(Cl)c2c(c1Cl)C(=O)N(Cc1c(C)cc(C)[nH]c1=O)CC2` [Example 75, 5,8-dichloro-2-[(4,6-dimethyl-2-oxo-1,2-dihydropyridin-3-yl)methyl]-7-{1-[1-(hydroxyacetyl)azetidin-3-ylidene]ethyl}-3,4-dihydroisoquinolin-1(2H)-one], in assay [1] (setting [3]), the Ki turned out to be 0.002 µM. For the same compound, the IC50 in assay [2] (setting [4]) came out at 0.02 µM.

As to `COc1cc(C)[nH]c(=O)c1CN1CCc2c(Cl)cc(C(OC)C3CCN(C=O)CC3)c(Cl)c2C1=O` (single isomer, unassigned) [Example 119], in assay [1] (setting [3]), the Ki was 0.015 µM. In addition, the half-inhibitory concentration (IC50) in assay [2] (setting [4]) was 0.1 µM.

`COc1cc(C)[nH]c(=O)c1CN1CCc2c(Cl)cc([C@H](CO)[C@H]3CCCO3)c(Cl)c2C1=O` [Example 105]: the Ki in assay [1] (setting [3]) turned out to be 0.0008 µM. Also, the half-inhibitory concentration (IC50) in assay [2] (setting [4]) was determined as 0.013 µM.

As for `COc1cc(C)[nH]c(=O)c1CN1CCc2c(Cl)cc(C(OC)C3CCN(C=O)CC3)c(Cl)c2C1=O` (single isomer, unassigned) [Example 118], the Ki in assay [1] (setting [3]) worked out at 0.0001 µM. Besides, the IC50 in assay [2] (setting [4]) was found to be 0.003 µM.

With `COC(c1ccc2c(c1Cl)C(=O)N(Cc1c(C)cc(C)[nH]c1=O)CC2)C1CCOC1` (single isomer, unassigned) [Example 133], the Ki in assay [1] (setting [3]) worked out at 0.837 µM. The half-inhibitory concentration (IC50) in assay [2] (setting [4]) was 8.64 µM.

As to `COc1cc(C)[nH]c(=O)c1CN1CCc2c(Cl)cc(C(C)C3CN(C)C3)c(Cl)c2C1=O` (single isomer, unassigned) [Example 88, 5,8-dichloro-2-[(4-methoxy-6-methyl-2-oxo-1,2-dihydropyridin-3-yl)methyl]-7-[1-(1-methylazetidin-3-yl)ethyl]-3,4-dihydroisoquinolin-1 (2H)-one], the Ki in assay [1] (setting [3]) came out at 0.028 µM. In addition, the IC50 in assay [2] (setting [4]) was 0.122 µM.

Turning to `Cc1cc(OC(F)F)c(CN2CCc3c(Cl)cc(C(CO)C4CCOC4)c(Cl)c3C2=O)c(=O)[nH]1` (single isomer, unassigned) [Example 95], the Ki in assay [1] (setting [3]) worked out at 0.001 µM. In assay [2] (setting [4]), the IC50 is 0.012 µM.

For the compound `Cc1cc(C)c(CN2CCc3c(Cl)cc(C(F)C4CCN(C(=O)CO)CC4)c(Cl)c3C2=O)c(=O)[nH]1` (single isomer, unassigned; (+)) [Example 8, (+)-5,8-dichloro-2-[(4,6-dimethyl-2-oxo-1,2-dihydropyridin-3-yl)methyl]-7-{fluoro[1-(hydroxyacetyl)piperidin-4-yl]methyl}-3,4-dihydroisoquinolin-1(2H)-one], in assay [1] (setting [3]), the Ki turned out to be 0.652 µM. Further, in assay [2] (setting [4]), the IC50 came to 5.02 µM.

On to `COC(c1cc(Cl)c2c(c1Cl)C(=O)N(Cc1c(C)cc(C)[nH]c1=O)CC2)C1CN(C)C1` (single isomer, unassigned) [Example 174], for which the Ki in assay [1] (setting [3]) was determined as 0.0006 µM. In addition, the IC50 in assay [2] (setting [4]) was found to be 0.013 µM.

In the case of `COC(c1cc(C)c2c(c1Cl)C(=O)N(Cc1c(C)cc(C)[nH]c1=O)CC2)C1CCN(C2COC2)CC1` (single isomer, unassigned) [Example 154], in assay [1] (setting [3]), the Ki was 0.0446 µM. Further, in assay [2] (setting [4]), the IC50 came to 0.553 µM.
